What was measured:
[1] = tested on: NSCLC tumors expressing EGFR G719S; test: PDX tumor growth, EGFR G719S model; assay type: in vivo, NSG mice; settings: mice harboring PDXs with mutations
Description: Dot plot of mutant/WT IC50 values of Ba/F3 cells expressing PACC mutations and treated with indicated classes of EGFR TKIs. […] Bars are representative of average mutant/WT IC50 values±SEM for each class of EGFR TKI and all PACC cell lines. p-values were determined by ANOVA analysis with unequal SD as determined by Brown-Forsythe test to determined differences in SD. Holm-Sidak's multiple comparisons test was used to determine differences between groups. […] Tumors were measured three times per week and symbols are average of tumor volumes±SEM. Mice were randomized into six groups. Mice received drug 5 days per week, and mice were euthanized at day 28 to harvest tumors. […] Heat map with unsupervised hierarchical clustering of log (Mutant/WT) ratios from Ba/F3 cells expressing indicated mutations after 72 hours of indicated drug treatment. Squares are representative of the average of n=3 replicates. […] Bars are representative of average mutant/WT IC50 values±SEM for each class of EGFR TKI and indicated cell lines. p-values were determined by ANOVA analysis with unequal SD as determined by Brown-Forsythe test to determined differences in SD. […]
Dot plot of percent change in tumor volume on day 28 of tumors described in FIG. 3C. […] Statistical differences were determined by ordinary one-way ANOVA with post-hoc Tukey's multiple comparisons test to determined differences between groups. […]

[2] = tested on: classical EGFR mutant NSCLC; settings: Phase III; treatment-naive patients; cited from earlier work
[3] = tested on: NSCLC harboring atypical EGFR mutations; settings: Phase II KCSG-LU15-09; treatment-naive patients harboring atypical EGFR mutations; cited from earlier work

Structure (SMILES): C=CC(=O)Nc1cc(Nc2nccc(-c3cn(C)c4ccccc34)n2)c(OC)cc1N(C)CCN(C)C [Osimertinib]
- tumor sensitivity in vivo [1]: resistant
- median overall survival (mOS) [2]: 38.6 months
- median progression free survival (mPFS) [2]: 18.9 months
- objective response rate (ORR) [2]: 80%
- ORR [3]: 50%
- mPFS [3]: 8.2 months
